# Data from patent publication US6881728B1, “14-β, 17-α-hydroxymethylandrostane derivatives as androgens” (Akzo Nobel N.V., priority 1999, dated 2005).
# Molecular target: T1, human androgen receptor (Homo sapiens, UniProt P10275)
# T1 construct: host or cells: MCF-7 cytosol (endogenous) or CHO cells transfected with hAR
# T1 sequence (P10275 1-920): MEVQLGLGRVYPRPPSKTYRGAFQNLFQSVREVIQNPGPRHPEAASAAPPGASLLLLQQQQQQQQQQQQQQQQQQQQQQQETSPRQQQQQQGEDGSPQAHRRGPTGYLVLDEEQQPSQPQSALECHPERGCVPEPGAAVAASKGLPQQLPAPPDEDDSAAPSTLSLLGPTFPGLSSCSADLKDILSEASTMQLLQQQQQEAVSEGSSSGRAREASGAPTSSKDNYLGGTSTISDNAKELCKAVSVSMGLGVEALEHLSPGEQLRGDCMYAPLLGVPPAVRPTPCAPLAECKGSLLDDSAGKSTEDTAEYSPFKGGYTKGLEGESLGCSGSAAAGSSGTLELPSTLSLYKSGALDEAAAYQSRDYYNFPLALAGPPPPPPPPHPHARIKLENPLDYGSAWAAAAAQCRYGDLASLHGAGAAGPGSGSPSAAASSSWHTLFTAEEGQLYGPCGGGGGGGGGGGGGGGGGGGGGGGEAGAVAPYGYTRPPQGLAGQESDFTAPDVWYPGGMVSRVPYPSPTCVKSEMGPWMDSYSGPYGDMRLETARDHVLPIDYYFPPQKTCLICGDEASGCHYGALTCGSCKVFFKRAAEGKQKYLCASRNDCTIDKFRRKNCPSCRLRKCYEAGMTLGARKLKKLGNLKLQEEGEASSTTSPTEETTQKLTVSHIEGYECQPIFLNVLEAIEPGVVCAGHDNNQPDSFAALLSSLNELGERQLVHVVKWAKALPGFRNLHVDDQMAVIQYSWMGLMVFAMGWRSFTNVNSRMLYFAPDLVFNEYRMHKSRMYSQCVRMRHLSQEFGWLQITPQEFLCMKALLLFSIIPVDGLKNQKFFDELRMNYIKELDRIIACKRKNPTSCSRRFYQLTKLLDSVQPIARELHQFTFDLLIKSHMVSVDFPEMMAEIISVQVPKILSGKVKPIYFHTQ
# Experiment: androgenic activity rating (procedures described above; which one underlies the rating is not stated)
# Design: key: +: androgenic activity found; ++: high androgenic activity; +++: excellent androgenic activity
# Procedure: Androgenic activity can be measured in various ways. Thus, the potency of androgens can be determined in vitro using the cytoplasmic androgen receptor from human breast tumor cells (MCF-7 cell line); see Bergink, E. W. et al, Comparison of the receptor binding properties of nandrolone and testosterone under in vitro and in vivo conditions, J. Steroid Biochem. 22, 831-836 (1985). It is also possible to use Chinese hamster ovary (CHO) cells transfected with the human androgen receptor (incubation time 16 h, temperature 4° C.) and compared with the affinity of 5α-dihydrotestosterone [according to the procedure described by Bergink, E. W. et al, J. Steroid Biochem. 12, 1563-1570 (1983)]. The transactivative androgen activity of the compounds of the invention can be measured, e.g. in Chinese hamster ovary cells (CHO) transfected with the human androgen receptor (hAR), in combination with a mouse mammary tumor virus (MMTV), and luciferase […] (incubation time 16 h, temperature 37° C.) and compared with the activity of 5α-dihydrotestosterone [according to the procedure described by Schoonen, W. G. E. J. et al, Analyt. Biochem. 261, 222-224 (1998)]. For the in vivo potency determination of androgens the classical Hershberger test can be used. In this test the androgenic (increase in prostate weight) and anabolic activities [increase of the musculus levator ani (MLA)] of a compound are tested in immature castrated rats after daily administration for 7 days; see Hershberger, L. G. et al, Myotrophic activity of 19-Nortestosterone and other steroids determined by modified levator ani muscle method, Proceedings of the society for experimental biology and medicine 83, 175-180 (1953). Additionally, the effect of an androgenic compound on LH suppression can be tested in mature castrated rats according to Kumar, N. et al, The biological activity of 7alpha-methyl-19-nortestosterone is not amplified in male reproductive tract as is that of testosterone, Endocrinology 130, 3677-3683 (1992).
# A plurality of compounds according to the invention were tested for androgenic activity (the procedures for which have been described above) and rated in the Table below according to the following scheme: • + androgenic activity found; • ++ high androgenic activity; • +++ excellent androgenic activity; • nd no data available
row,SMILES,Rating (androgenic activity)
1,"CC1CC2=CC(=O)CCC2C2CCC3(C)C(C4CC4C3C(C)(C)O)C12 (stereo not drawn) [Example 21, (7α,14β,15β,16β,17α)-20-Hydroxy-7,20-dimethyl-15,16-methylene-19-norpregn4-en-3-one]",+
2,"CC(=O)OC[C@@H]1CC[C@@H]2[C@H]3[C@H](CC[C@]12C)[C@H]1CCC(=O)C=C1C[C@H]3C [Example 33a, (7α,14β,17α)-17-[(Acetyloxy)methyl]-7-methylestr-4-en-3-one]",+
3,"C[C@@H]1CC2=CC(=O)CC[C@@H]2[C@H]2CC[C@@]3(C)[C@H]([C@@H]4C[C@@H]4[C@H]3CO)[C@@H]21 [Example 10, (7α,14β,15β,16β,17α)-17-(Hydroxymethyl)-7-methyl-15,16-methyleneestr-4-en-3-one]",++
4,"C=CC[C@@H](O)[C@@H]1CC[C@@H]2[C@H]3[C@H](CC[C@@]21C)[C@H]1CCC(=O)C=C1C[C@H]3C [Example 18h, (7α,14β,17α,20R)-20-Hydroxy-7-methyl-19,21-dinorchola-4,23-dien-3-one]",+
5,"C[C@@H]1CC2=C[C@@H](O)CC[C@@H]2[C@H]2CC[C@]3(C)[C@H](CO)CC[C@@H]3[C@@H]21 [Example 34, (3β,7α,14β,17α)-17-(Hydroxymethyl)-7-methylestr-4-en-3-ol]",++
6,"CCCCCCCCCCC(=O)OC[C@@H]1CC[C@@H]2[C@H]3[C@H](CC[C@]12C)[C@H]1CCC(=O)C=C1C[C@H]3C [Example 33c, (7α,14β,17α)-7-Methyl-17-[[(1-oxoundecyl)oxy]methyl]estr-4-en-3-one]",+
7,"C=CC(O)[C@@H]1CC[C@@H]2[C@H]3[C@H](CC[C@@]21C)[C@H]1CCC(=O)C=C1C[C@H]3C (stereo partly drawn) [Example 18a, [7α,14β,17α(S)]-17-(1-Hydroxy-2-propenyl)-7-methylestr-4-en-3-one]",+
8,"C[C@@H]1CC2=CC(=O)CC[C@@H]2[C@H]2CC[C@@]3(C)[C@H](CC[C@]3(F)CO)[C@@H]21 [Example 12, (7α,14β,17α)-17-Fluoro-17-(hydroxymethyl)-7-methylestr-4-en-3-one]",+++
9,"C[C@@H]1C[C@@H](CO)[C@@]2(C)CC[C@H]3[C@@H](CCC4=CC(=O)CC[C@@H]43)[C@@H]12 [Example 23, (14β,15β,17α)-17-(Hydroxymethyl)-15-methylestr-4-en-3-one]",+
10,"C[C@@H]1CC2=CC(=O)CC[C@@H]2[C@H]2CC[C@]3(C)[C@H](CO)C[C@@H](C)[C@@H]3[C@@H]21 [Example 7, (7α,14β,15β,17α)-17-(Hydroxymethyl)-7,15-dimethylestr-4-en-3-one]",+
11,"C[C@]12CCC3=C4CCC(=O)C=C4CC[C@H]3[C@H]1CC[C@H]2CO [Example 3, (14β,17α)-17-(Hydroxymethyl)estra-4,9-dien-3-one]",+
12,"C#C[C@@H](O)[C@@H]1CC[C@@H]2[C@H]3[C@H](CC[C@@]21C)[C@H]1CCC(=O)C=C1C[C@H]3C [Example 18d, [7α,14β,17α(S)]-17-(1-Hydroxy-2-propynyl)-7-methylestr-4-en-3-one]",+
13,"C[C@@H]1CC2=CC(=O)CC[C@@H]2[C@H]2CC[C@]3(C)[C@H](CO)CC[C@]3(C)[C@@H]21 [Example 6, (7α,14β,17α)-17-(Hydroxymethyl)-7,14-dimethylestr-4-en-3-one]",++
14,"CC(O)C1CCC2C3CCC4=CC(=O)CCC4=C3CCC12C [Example 27a, (14β,17α,20S)-20-Hydroxy-19-norpregna-4,9-dien-3-one]",++
15,"C=C[C@@H]1CC2=CC(=O)CC[C@@H]2[C@H]2CC[C@]3(C)[C@H](CO)CC[C@@H]3[C@@H]21 [Example 15, (7α,14β,17α)-7-Ethenyl-17-(hydroxymethyl)estr-4-en-3-one]",++
16,"CC1CC2=CC(=O)CCC2C2CCC3(C)C(CCC3C(C)(C)O)C12 (stereo not drawn) [Example 19, (7α,14β,17α)-20-Hydroxy-7,20-dimethyl-19-norpregn-4-en-3-one]",+
17,"CC(O)C1CCC2C3C(C)CC4=CC(=O)CCC4C3CCC12C [Example 16b, (7α,14β,17α,20R)-20-Hydroxy-7-methyl-19-norpregn-4-en-3-one]",+
18,"C#C[C@H](O)[C@@H]1CC[C@@H]2[C@H]3[C@H](CC[C@@]21C)[C@H]1CCC(=O)C=C1C[C@H]3C [Example 18c, [7α,14β,17α(R)]-17-(1-Hydroxy-2-propynyl)-7-methylestr-4-en-3-one]",+
19,"CC(O)C1CCC2C3CCC4=CC(=O)CCC4C3CCC12C [Example 24b, (14β,17α,20R)-20-Hydroxy-19-norpregn-4-en-3-one]",+
20,"C[C@@H]1CC2=CC(=O)CC[C@@H]2[C@H]2CC[C@@]3(C)[C@H](C=C[C@H]3CO)[C@@H]21 [Example 5, (7α,14β,17α)-17-(hydroxymethyl)-7-methylestra-4,15-dien-3-one]",+++
21,"C[C@@H]1CC2=CCCC[C@@H]2[C@H]2CC[C@]3(C)[C@H](CO)CC[C@@H]3[C@@H]21 [Example 37, (7α,14β,17α)-7-Methylestr4-ene-17-methanol]",+
22,"C=CC1CC2(C)C(C(C)O)CCC2C2CCC3=CC(=O)CCC3=C12 [Example 30, (11β,14β,17α,20S)-11-Ethenyl-20-hydroxy-19-norpregna-4,9-dien-3-one]",+
23,"CC(O)C1CCC2C3CCC4=CC(=O)CCC4C3CCC12C [Example 24a, (14β,17α,20S)-20-Hydroxy-19-norpregn-4-en-3-one]",++
24,"CC(O)C1C2CC2C2C3C(C)CC4=CC(=O)CCC4C3CCC12C [Example 20b, (7α,14β,15β,16β,17α,20R)-20-Hydroxy-7-methyl-15,16-methylene-19-norpregn-4-en-3-one]",+
25,"CC1CC2=CC(=O)CCC2C2CCC3(C)C(CCC3(C)CO)C12 (stereo not drawn) [Example 11, (7α,14β,17α)-17-(Hydroxymethyl)-7,17-dimethylestr-4-en-3-one]",+
26,"CCC[C@H](O)[C@@H]1CC[C@@H]2[C@@H]3CCC4=CC(=O)CC[C@@H]4[C@H]3CC[C@@]21C [Example 25c, (14β,17α,20S)-20-Hydroxy-19,21-dinorchol-4-en-3-one]",+
27,"C[C@@H]1CC2=C/C(=N/O)CC[C@@H]2[C@H]2CC[C@]3(C)[C@H](CO)CC[C@@H]3[C@@H]21 [Example 36a, (3E,7α,14β,17α)-3-(Hydroxyimino)-7-methylestr-4-ene-17-methanol]",+
28,"CC(O)C1C2CC2C2C3C(C)CC4=CC(=O)CCC4C3CCC12C [Example 20a, (7α,14β,15β,16β,17α,20S)-20-Hydroxy-7-methyl-15,16-methylene-19-norpregn-4-en-3-one]",++
29,"C[C@@H]1CC2=CC(=O)CC[C@@H]2[C@H]2CC[C@@]3(C)[C@H](CC[C@@]3(O)CO)[C@@H]21 [Example 13, (7α,14β,17β)-17-Hydroxy-17-(hydroxymethyl)-7-methylestr-4-en-3-one]",+
30,"C[C@@H]1CC2=CC(=O)CC[C@@H]2[C@H]2CC[C@]3(C)[C@H](CO)CC[C@@H]3[C@@H]21 [Example 4, (7α,14β,17α)-17-(Hydroxymethyl)-7-methylestr-4-en-3-one]",+++
